One test has as its target T1, GluK2 receptor (Rattus norvegicus, UniProt P42260).
T1 construct: gene Grik2; GluK2-containing receptors expressed in Xenopus oocytes
In words: Xenopus oocyte currents, […] ShuBQX-3 in the dark; […] antagonism at […] glutamate, […] at […] glutamate. It is filed as cell-based. Conditions: read-out: % antagonism at 5 μM (30 μM glutamate).

For test [1], the target named is T2, GluA1 (GluA1-containing receptors) (Rattus norvegicus, UniProt P19490).
T2 construct: gene Gria1; GluA1-containing receptors expressed in Xenopus oocytes
In words: Xenopus oocyte currents, […] kainic acid, […] ShuBQX-3 in the dark ([…] antagonism). It is filed as cell-based.

Structures are written as SMILES.

T2 sequence (P19490 19-907): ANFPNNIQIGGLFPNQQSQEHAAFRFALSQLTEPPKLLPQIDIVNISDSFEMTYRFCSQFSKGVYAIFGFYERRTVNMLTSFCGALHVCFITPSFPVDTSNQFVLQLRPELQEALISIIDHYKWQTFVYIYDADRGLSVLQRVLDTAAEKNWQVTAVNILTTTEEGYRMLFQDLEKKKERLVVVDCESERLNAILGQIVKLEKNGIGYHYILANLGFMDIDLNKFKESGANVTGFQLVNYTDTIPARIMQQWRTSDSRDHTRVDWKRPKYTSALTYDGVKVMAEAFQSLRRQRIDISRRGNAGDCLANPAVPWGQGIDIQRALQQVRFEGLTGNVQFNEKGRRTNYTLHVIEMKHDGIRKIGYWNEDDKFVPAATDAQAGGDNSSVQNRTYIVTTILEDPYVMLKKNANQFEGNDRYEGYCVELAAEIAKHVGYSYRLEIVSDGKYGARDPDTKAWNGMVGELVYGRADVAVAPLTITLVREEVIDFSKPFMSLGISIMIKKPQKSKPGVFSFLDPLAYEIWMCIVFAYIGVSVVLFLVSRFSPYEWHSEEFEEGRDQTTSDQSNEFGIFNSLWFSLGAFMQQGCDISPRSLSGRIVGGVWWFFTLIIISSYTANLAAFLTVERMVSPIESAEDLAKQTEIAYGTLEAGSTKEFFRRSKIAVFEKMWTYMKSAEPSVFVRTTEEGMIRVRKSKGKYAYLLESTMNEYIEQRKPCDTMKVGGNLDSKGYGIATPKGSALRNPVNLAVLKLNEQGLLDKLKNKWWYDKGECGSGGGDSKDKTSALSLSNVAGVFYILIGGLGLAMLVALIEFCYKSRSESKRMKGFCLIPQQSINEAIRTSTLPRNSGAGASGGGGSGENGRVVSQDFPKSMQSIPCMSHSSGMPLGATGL
T1 sequence (P42260 32-908): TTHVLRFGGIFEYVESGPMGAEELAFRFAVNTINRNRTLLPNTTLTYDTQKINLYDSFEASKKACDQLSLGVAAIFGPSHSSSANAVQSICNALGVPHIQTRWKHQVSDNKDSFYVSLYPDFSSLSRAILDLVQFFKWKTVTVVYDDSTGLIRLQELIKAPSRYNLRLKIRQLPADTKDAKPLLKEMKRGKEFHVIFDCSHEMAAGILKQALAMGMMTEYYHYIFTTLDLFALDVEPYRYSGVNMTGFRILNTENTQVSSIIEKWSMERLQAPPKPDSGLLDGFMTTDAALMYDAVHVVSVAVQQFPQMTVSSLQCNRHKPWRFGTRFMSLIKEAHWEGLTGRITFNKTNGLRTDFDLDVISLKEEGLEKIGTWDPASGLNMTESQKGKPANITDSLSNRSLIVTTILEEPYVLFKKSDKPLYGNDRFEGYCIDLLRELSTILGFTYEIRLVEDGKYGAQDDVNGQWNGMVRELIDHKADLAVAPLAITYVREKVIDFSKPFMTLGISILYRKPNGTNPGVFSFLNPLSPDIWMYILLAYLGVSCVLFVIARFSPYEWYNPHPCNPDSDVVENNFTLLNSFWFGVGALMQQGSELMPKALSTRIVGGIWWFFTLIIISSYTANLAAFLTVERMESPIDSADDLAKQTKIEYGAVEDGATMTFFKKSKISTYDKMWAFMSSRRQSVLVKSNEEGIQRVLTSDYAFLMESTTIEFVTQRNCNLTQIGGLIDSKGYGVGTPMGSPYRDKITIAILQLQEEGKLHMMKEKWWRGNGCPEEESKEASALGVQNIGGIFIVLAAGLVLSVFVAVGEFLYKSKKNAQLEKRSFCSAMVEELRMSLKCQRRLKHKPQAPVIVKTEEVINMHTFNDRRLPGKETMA

`O=c1[nH]c2cc(C(F)(F)F)c(/N=N/c3ccccc3)cc2n(CP(=O)(O)O)c1=O` [ShuBQX-3]: the values for the inhibition at 5 µM (on GluK2 receptor; in test [1]) were 49% and 85 to 93%, respectively.

These data come from paper PMC5358534, “Optical control of AMPA receptors using a photoswitchable quinoxaline-2,3-dione antagonist” (Chemical Science, 2016).
